Source: US11324738B2, “Muscarinic agonists” (Heptares Therapeutics Limited, priority 2015, dated 2022)

Assays:
Format in all cases: cell-based
[1] = target: T1, human muscarinic M3 receptor (Homo sapiens, UniProt P20309); experiment: Alphascreen Surefire phospho-ERK1/2 functional assay, CHO cells expressing M3; details: for Emax: CHO, read-out: % Emax cf. ACh, M3; for EC50: agonist, CHO cells, phospho-ERK1/2, read-out: pEC50 M3 (converted)
T1 construct: expressed in transfected cells
Protocol: (§1) ERK1/2 phosphorylation is a downstream consequence of both Gq/11 and Gi/o protein coupled receptor activation, making it highly suitable for the assessment of M1, M3 (Gq/11 coupled) and M2, M4 receptors (Gi/o coupled), rather than using different assay formats for different receptor subtypes. CHO cells stably expressing the human muscarinic M1, M2, M3 or M4 receptor were plated (25K/well) onto 96-well tissue culture plates in MEM-alpha+10% dialysed FBS. Once adhered, cells were serum-starved overnight. Agonist stimulation was performed by the addition of 5 μL agonist to the cells for 5 min (37° C.). Media was removed and 50 μL of lysis buffer added. After 15 min, a 4 μL sample was transferred to 384-well plate and 7 μL of detection mixture added.

[2] = target: T2, human muscarinic M2 receptor (Homo sapiens, UniProt P08172); experiment: Alphascreen Surefire phospho-ERK1/2 functional assay, CHO cells expressing M2; details: for Emax: CHO, read-out: % Emax cf. ACh, M2; for EC50: agonist, CHO cells, phospho-ERK1/2, read-out: pEC50 M2 (converted)
T2 construct: expressed in transfected cells
T2 sequence (P08172 1-466): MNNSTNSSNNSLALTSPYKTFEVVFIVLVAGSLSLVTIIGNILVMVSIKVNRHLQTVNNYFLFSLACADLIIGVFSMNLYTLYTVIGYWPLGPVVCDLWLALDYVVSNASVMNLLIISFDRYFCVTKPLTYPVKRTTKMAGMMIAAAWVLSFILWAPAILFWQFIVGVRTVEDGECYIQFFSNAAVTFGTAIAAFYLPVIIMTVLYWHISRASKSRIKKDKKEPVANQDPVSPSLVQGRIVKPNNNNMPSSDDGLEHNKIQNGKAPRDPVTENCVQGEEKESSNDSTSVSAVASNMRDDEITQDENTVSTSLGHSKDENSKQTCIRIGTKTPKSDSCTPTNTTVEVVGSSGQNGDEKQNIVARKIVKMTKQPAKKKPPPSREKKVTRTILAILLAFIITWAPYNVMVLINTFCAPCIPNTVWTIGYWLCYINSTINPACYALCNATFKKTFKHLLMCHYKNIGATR
Protocol: as §1

[3] = target: T3, human muscarinic M1 receptor (Homo sapiens, UniProt P11229); experiment: Alphascreen Surefire phospho-ERK1/2 functional assay, CHO cells expressing M1; details: for Emax: CHO, read-out: % Emax cf. ACh, M1; for EC50: agonist, CHO cells, phospho-ERK1/2, read-out: pEC50 M1 (converted)
T3 construct: expressed in transfected cells
T3 sequence (P11229 1-460): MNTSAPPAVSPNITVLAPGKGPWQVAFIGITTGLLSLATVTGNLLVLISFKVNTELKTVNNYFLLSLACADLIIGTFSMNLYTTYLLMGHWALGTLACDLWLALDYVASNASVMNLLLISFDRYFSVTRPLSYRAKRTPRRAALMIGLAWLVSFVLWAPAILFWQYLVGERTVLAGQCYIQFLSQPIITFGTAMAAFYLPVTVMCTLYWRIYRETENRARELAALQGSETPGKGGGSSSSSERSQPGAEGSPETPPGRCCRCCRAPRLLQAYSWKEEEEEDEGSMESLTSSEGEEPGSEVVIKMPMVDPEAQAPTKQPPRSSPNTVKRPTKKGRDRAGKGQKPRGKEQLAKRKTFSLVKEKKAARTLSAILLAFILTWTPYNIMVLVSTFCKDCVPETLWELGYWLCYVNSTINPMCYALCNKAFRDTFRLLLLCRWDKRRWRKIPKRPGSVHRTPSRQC
Protocol: as §1

[4] = target: T4, human muscarinic M4 receptor (Homo sapiens, UniProt P08173); experiment: Alphascreen Surefire phospho-ERK1/2 functional assay, CHO cells expressing M4; details: for Emax: CHO, read-out: % Emax cf. ACh, M4; for EC50: agonist, CHO cells, phospho-ERK1/2, read-out: pEC50 M4 (converted)
T4 construct: expressed in transfected cells
T4 sequence (P08173 1-479): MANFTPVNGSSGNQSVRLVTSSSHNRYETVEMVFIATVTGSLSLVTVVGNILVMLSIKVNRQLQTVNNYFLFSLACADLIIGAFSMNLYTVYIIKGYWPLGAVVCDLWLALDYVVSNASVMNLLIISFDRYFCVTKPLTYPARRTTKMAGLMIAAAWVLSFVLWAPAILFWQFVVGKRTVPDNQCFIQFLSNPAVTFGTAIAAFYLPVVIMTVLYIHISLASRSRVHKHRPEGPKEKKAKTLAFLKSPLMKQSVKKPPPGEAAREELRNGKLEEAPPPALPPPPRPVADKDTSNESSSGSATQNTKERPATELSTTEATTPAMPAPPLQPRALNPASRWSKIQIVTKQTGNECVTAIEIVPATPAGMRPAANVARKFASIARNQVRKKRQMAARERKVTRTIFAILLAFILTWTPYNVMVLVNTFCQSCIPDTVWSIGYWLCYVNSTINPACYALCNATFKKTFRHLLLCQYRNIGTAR
Protocol: as §1

T1 sequence (P20309 whole entry): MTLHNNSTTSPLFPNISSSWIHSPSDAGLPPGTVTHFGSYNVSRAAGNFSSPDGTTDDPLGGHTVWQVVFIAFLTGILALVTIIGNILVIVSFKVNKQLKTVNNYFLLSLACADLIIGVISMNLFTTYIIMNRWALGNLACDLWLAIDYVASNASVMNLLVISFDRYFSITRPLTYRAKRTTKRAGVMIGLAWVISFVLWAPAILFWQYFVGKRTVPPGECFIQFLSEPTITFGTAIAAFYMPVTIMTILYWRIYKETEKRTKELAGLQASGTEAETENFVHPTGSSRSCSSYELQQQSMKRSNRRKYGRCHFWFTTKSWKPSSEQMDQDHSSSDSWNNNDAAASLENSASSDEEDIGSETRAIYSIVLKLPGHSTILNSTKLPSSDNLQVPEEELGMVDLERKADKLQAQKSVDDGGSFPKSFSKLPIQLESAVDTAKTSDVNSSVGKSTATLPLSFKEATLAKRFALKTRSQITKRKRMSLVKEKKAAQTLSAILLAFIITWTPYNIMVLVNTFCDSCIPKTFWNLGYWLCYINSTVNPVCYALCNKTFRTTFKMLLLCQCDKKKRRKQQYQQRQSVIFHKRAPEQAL

Row | Emax [1] [%] | EC50 [1] [nM] | Emax [2] [%] | EC50 [2] [nM] | Emax [3] [%] | EC50 [3] [nM] | Emax [4] [%] | EC50 [4] [nM] | Structure (SMILES) | selectivity for the M4 receptor relative to the M1 receptor ([4]; statement in words)
1 | 10 | > 20000 | 67 | > 20000 | 18 | > 20000 | 64 | 39.8 | CCOC(=O)N1CC2(CC(N3CCC(N4CCCC4c4ccon4)CC3)C2)C1 (racemic) [Example 1-5 (racemic), ethyl 6-{4-[2-(1,2-oxazol-3-yl)pyrrolidin-1-yl]piperidin-1-yl}-2-azaspiro[3.3]heptane-2-carboxylate] | 
2 | 9 | > 20000 | 17 | > 20000 | 42 | 126 | 82 | 15.8 | COC(=O)N1CC2(CCC(N3CCC(c4nccn4C)CC3)C2)C1 (racemic) [Example 2-1 (racemic)] | 
3 | 5 | > 20000 | 7 | > 20000 | 7 | 501 | 102 | 31.6 | CCOC(=O)N1CC2(CCC(N3CCC(c4nccn4C)CC3)C2)C1 (racemic) [Example 2-2 (racemic), Ethyl 6-[4-(1-methyl-1H-imidazol-2-yl)piperidin-1-yl]-2-azaspiro[3.4]octane-2-carboxylate] | 
4 | 5 | > 20000 | 2 | > 20000 | 105 | 3.98 | 94 | 1 | CCOC(=O)N1CC2(CCC(N3CCC(n4cccn4)CC3)C2)C1 (racemic) [Example 2-3 (racemic), Ethyl 6-[4-(1H-pyrazol-1-yl)piperidin-1-yl]-2-azaspiro[3.4]octane-2-carboxylate] | 
5 | 2 | > 20000 | 4 | > 20000 | 39 | > 20000 | 56 | 3.16 | CCOC(=O)N1CC2(CCC(N3CCC([C@@H]4CCCN4C(=O)NC)CC3)C2)C1 (mixture of isomers) [Example 2-4 (mixture of isomers), Ethyl 6-{4-[(2S)-1-(methylcarbamoyl)pyrrolidin-2-yl]piperidin-1-yl}-2-azaspiro[3.4]octane-2-carboxylate] | 
6 | 3 | > 20000 | 6 | > 20000 | 38 | 158 | 36 | 12.6 | CCOC(=O)N1CC2(CCC(N3CCC(N4C(=O)CC[C@@H]4C)CC3)C2)C1 (mixture of isomers) [Example 2-5 (mixture of isomers), ethyl 6-{4-[(2S)-2-methyl-5-oxopyrrolidin-1-yl]piperidin-1-yl}-2-azaspiro[3.4]octane-2-carboxylate] | 
7 | 13 | > 20000 | 8 | > 20000 | 71 | 15.8 | 59 | 7.94 | CCOC(=O)N1CC2(CCC(N3CCC(N4C(=O)CC[C@@H]4CC)CC3)C2)C1 (mixture of isomers) [Example 2-6 (mixture of isomers), Ethyl 6-{4-[(2S)-2-ethyl-5-oxopyrrolidin-1-yl]piperidin-1-yl}-2-azaspiro[3.4]octane-2-carboxylate] | 
8 | 53 | > 20000 | 9 | > 20000 | 71 | 39.8 | 69 | 3.98 | CCOC(=O)N1CC2(CCC(N3CCC(N4C(=O)CC[C@H]4C)CC3)C2)C1 (mixture of isomers) [Example 2-7 (mixture of isomers), Ethyl 6-{4-[(2R)-2-methyl-5-oxopyrrolidin-1-yl]piperidin-1-yl}-2-azaspiro[3.4]octane-2-carboxylate] | 
9 | 8 | > 20000 | 11 | > 20000 | 100 | 39.8 | 123 | 3.16 | CCOC(=O)N1CC2(CCC(N3CCC(N4C(=O)CC[C@H]4CC)CC3)C2)C1 (mixture of isomers) [Example 2-9 (mixture of isomers), Ethyl 6-{4-[(2R)-2-ethyl-5-oxopyrrolidin-1-yl]piperidin-1-yl}-2-azaspiro[3.4]octane-2-carboxylate] | 
10 |  |  |  |  | 6 | > 20000 | 32 | 6.31 | CCOC(=O)N1CC2(CCC(N3CCC(N4CC(F)(F)C[C@@H]4CO)CC3)C2)C1 (mixture of isomers) [Example 2-10 (mixture of isomers), Ethyl 6-{4-[(2R)-4,4-difluoro-2-(hydroxymethyl)pyrrolidin-1-yl]piperidin-1-yl}-2-azaspiro[3.4]octane-2-carboxylate] | 
11 | 4 | > 20000 | 6 | > 20000 | 24 | > 20000 | 100 | 79.4 | COC(=O)N1CC2(CCC(N3CCC(N4CCC[C@@H]4c4cnco4)CC3)C2)C1 (single isomer, unassigned) [Example 2-11 (Isomer 2)] | highly selective for the M4 receptor relative to the M1 receptor
12 | 5 | > 20000 | 7 | > 20000 | 50 | 31.6 | 114 | 1 | CCOC(=O)N1CC2(CCC(N3CCC(N4CCC[C@@H]4c4cnco4)CC3)C2)C1 (single isomer, unassigned) [Example 2-12 (Isomer 2)] | 
13 |  |  |  |  | 113 | 3160 | 73 | 316 | COC(=O)N1CC2(CC(N3CCC(c4nccn4C)CC3)C2)C1 [Example 1-1, Methyl 6-[4-(1-methyl-1H-imidazol-2-yl)piperidin-1-yl]-2-azaspiro[3.3]heptane-2-carboxylate] | 
14 |  |  |  |  | 100 | 10000 | 100 | 1260 | CCOC(=O)N1CC2(CC(N3CCC(c4nccn4C)CC3)C2)C1 [Example 1-2, Ethyl 6-[4-(1-methyl-1H-imidazol-2-yl)piperidin-1-yl]-2-azaspiro[3.3]heptane-2-carboxylate] | 
15 | 7 | > 20000 | 6 | > 20000 | 71 | 794 | 97 | 15.8 | CCOC(=O)N1CC2(CC(N3CCC([C@@H]4CCCN4C(=O)NC)CC3)C2)C1 [Example 1-4, Ethyl 6-{4-[(2S)-1-(methylcarbamoyl)pyrrolidin-2-yl]piperidin-1-yl}-2-azaspiro[3.3]heptane-2-carboxylate] | 
16 |  |  |  |  | 67 | 794 | 78 | 200 | CCOC(=O)N1CC2(CC(N3CCC(N4C(=O)CC[C@@H]4C)CC3)C2)C1 [Example 1-8, Ethyl 6-{4-[(2S)-2-methyl-5-oxopyrrolidin-1-yl]piperidin-1-yl}-2-azaspiro[3.3]heptane-2-carboxylate] | 
17 |  |  |  |  | 101 | 1580 | 117 | 158 | CCOC(=O)N1CC2(CC(N3CCC(N4C(=O)CC[C@H]4C)CC3)C2)C1 [Example 1-9] | 
